# According to PubChem BioAssay (NCI):
# “And” between values parts separate entries of the source, which are not always exact repeats. Equal entries are not always repeated.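 Step 1: Grow cells in 96-well plates. Step 2: Expose to compound for 48 hours at 5 concentrations. Step 3: Interpolate endpoints linearly; if unreached, use highest concentration. The concentration for 50% growth inhibition is given as GI50. TGI denotes the concentration required for complete inhibition of growth.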
# What was measured:
# Assay in all cases: NCI anticancer screen, dose series, 48 h
# MCF7 breast = system: MCF7 breast
# OVCAR-4 ovarian = system: OVCAR-4 ovarian
# DU-145 prostate = system: DU-145 prostate
# HS 578T breast = system: HS 578T breast
# NCI-H23 lung = system: NCI-H23 lung
# OVCAR-8 ovarian = system: OVCAR-8 ovarian
# NCI-H460 lung = system: NCI-H460 lung
# A549 NSCLC = system: A549 NSCLC
# HT29 colon = system: HT29 colon
# SR leukemia = system: SR leukemia
Compound,TGI (MCF7 breast),TGI (OVCAR-4 ovarian),TGI (DU-145 prostate),TGI (HS 578T breast) [µM],TGI (NCI-H23 lung),TGI (OVCAR-8 ovarian),TGI (NCI-H460 lung),TGI (A549 NSCLC),TGI (HT29 colon),TGI (SR leukemia),GI50 (MCF7 breast),GI50 (OVCAR-4 ovarian),GI50 (DU-145 prostate),GI50 (HS 578T breast),GI50 (NCI-H23 lung),GI50 (OVCAR-8 ovarian),GI50 (NCI-H460 lung),GI50 (A549 NSCLC),GI50 (HT29 colon),GI50 (SR leukemia)
COc1cc2oc(=O)cc(C)c2cc1[N+](=O)[O-],> 100 µM,84.1 µM,> 100 µM,> 90.3,51.5 µM,40.7 µM,> 100 µM,> 100 µM,> 57.8 µM,> 100 µM,–,–,–,–,–,–,–,–,–,–
O=C(Nc1ccc(Cl)c([N+](=O)[O-])c1)Nc1nc2ccccc2s1,15.5 µM,26 µM,14.6 µM,12.3,9.05 µM,17.7 µM,9.45 µM,13 µM,11.6 µM,16.4 µM,3.02 µM,4.21 µM,4.22 µM,2.85 µM,2.4 µM,3.33 µM,2.93 µM,3.37 µM,3.51 µM,3.94 µM
CN1CCN(Cc2ccc(-c3cc4ncnc(Nc5ccc(OCc6cccc(F)c6)c(Cl)c5)c4s3)o2)CC1,7.81 µM,7.5 µM,7.47 µM,12.7,8.44 µM,9.62 µM,8.85 µM,6.92 µM,4.3 µM,10 µM,3.86 µM,3.69 µM,4.03 µM,5.57 µM,4.29 µM,4.53 µM,4.56 µM,3.2 µM,1.38 µM,4.43 µM
CC(C)C[C@H](NC(=O)[C@H](Cc1ccccc1)n1ccc(N2CCCCC2)cc1=O)B(O)O,> 100 µM,> 100 µM,> 100 µM,6.2,> 100 µM,> 100 µM,> 100 µM,> 100 µM,> 100 µM,11.6 µM,0.392 µM,2.06 µM,0.706 µM,0.427 µM,1.59 µM,3.64 µM,3.18 µM,2.39 µM,0.449 µM,0.259 µM
O=C(/C=C/c1ccco1)c1ccc(Nc2nc(Nc3ccc(F)cc3)nc(Nc3ccc(Cl)cc3)n2)cc1,34.1 µM,> 88.3 µM,> 74.7 µM,> 91.4,> 63.4 µM,57.3 µM,31.9 µM,> 100 µM,> 89.7 µM,> 44.5 µM,1.84 µM,27.1 µM,30.9 µM,26 µM,17.9 µM,18.3 µM,9.29 µM,22.3 µM,15.6 µM,> 20.7 µM
CCC/C(=N\NC(=S)N1CCN(c2ccccn2)CC1)c1ccccn1,1.41 µM,> 5.77 µM and 2.31 µM,2.37 µM,3.76,> 10 µM and 2.43 µM,0.476 µM and 1.5 µM,> 4.19 µM,> 3.16 µM and 1.93 µM,> 5.39 µM,0.117 µM,–,0.0398 µM,–,–,–,–,–,0.032 µM,–,–
COc1ccc(C(=O)Cn2c(C(=O)c3ccc(Cl)cc3)nc3ccccc32)cc1,> 100 µM,> 100 µM,> 100 µM,> 23.7,> 100 µM,> 100 µM,> 100 µM,> 100 µM,> 100 µM,> 22.4 µM,3 µM,> 84.1 µM,> 100 µM,3.29 µM,> 57.9 µM,> 100 µM,25.2 µM,29.8 µM,7.58 µM,2.2 µM
Oc1ccc(C(c2ccccc2)(c2ccccc2)c2ccccc2)cc1,34.3 µM,25.2 µM,27.8 µM,65.1,28.9 µM,35.9 µM,48.1 µM,29 µM,–,56.9 µM,10.3 µM,12.3 µM,13.3 µM,17.6 µM,14 µM,18.2 µM,15.3 µM,12.8 µM,–,25.4 µM
CCNC(=O)C[C@@H]1N=C(c2ccc(Cl)cc2)c2cc(OC)ccc2-n2c(C)nnc21,> 100 µM,> 100 µM,> 100 µM,> 41.5,> 100 µM,> 100 µM,> 100 µM,> 100 µM,> 100 µM,> 100 µM,0.532 µM,5.93 µM,> 100 µM,0.796 µM,13.5 µM,8.9 µM,> 100 µM,13.1 µM,1.02 µM,0.567 µM
COc1cccc(-c2nn(-c3ccccc3)cc2-c2ccnc(NCCNS(=O)(=O)c3ccc(Cl)cc3)c2)c1,18.4 µM,> 100 µM,> 100 µM,> 100,> 100 µM,> 100 µM,> 100 µM,> 100 µM,11.3 µM,6.59 µM,2.98 µM,4.15 µM,7.55 µM,5.73 µM,4.32 µM,7.54 µM,5.15 µM,5.86 µM,3.37 µM,2.25 µM
O=C(Nc1ccc(-c2nc3cc4ccccc4cc3[nH]2)cc1)c1cccc(Br)c1,10.4 µM,7.97 µM,19.1 µM,46.2,50.3 µM,18.9 µM,13 µM,10.6 µM,11.9 µM,8.66 µM,1.97 µM,2.88 µM,3.03 µM,14.3 µM,19.2 µM,3.43 µM,3.36 µM,2.83 µM,2.77 µM,2.34 µM
C=C1C(=O)O[C@@H]2C[C@@H]1CC[C@]1(C)O[C@H]1CC[C@@]1(C)O[C@@H]1CC[C@@]2(C)O,> 100 µM,33.1 µM,> 100 µM,67.3,–,> 100 µM,> 100 µM,> 100 µM,87.6 µM,31.1 µM,99.8 µM,13.7 µM,35 µM,22.7 µM,–,30.7 µM,> 100 µM,> 100 µM,24.7 µM,3.49 µM
O=C1/C(=C/c2cccc([N+](=O)[O-])c2)COc2ccc(O)c(O)c21,2.96 µM,2.8 µM,4.39 µM,7.47,3.95 µM,13.3 µM,4.97 µM,6.37 µM,19.1 µM,7.94 µM,0.665 µM,1.46 µM,1.9 µM,2.04 µM,1.75 µM,2.35 µM,2.08 µM,2.06 µM,2.89 µM,0.364 µM
CCn1c(=O)c(-c2ccn[nH]2)cc2c(C)nc(N)nc21,> 100 µM,44 µM,> 100 µM,2.38,> 100 µM,61.7 µM,> 100 µM,7.41 µM,> 100 µM,> 100 µM,0.389 µM,1.25 µM,2.34 µM,0.35 µM,2.07 µM,2.51 µM,1.4 µM,1.99 µM,1.53 µM,1.64 µM
CCC1=C(C)/C(=C/c2[nH]c(C)c(C(=O)CCCCC(=O)OC)c2C)N=C1c1ccc[nH]1,46.4 µM,17.3 µM,24.6 µM,50.4,55.5 µM,42.6 µM,> 100 µM,> 53.4 µM,38.4 µM,5.49 µM,12.1 µM,3.47 µM,12.2 µM,14.7 µM,17.3 µM,7.46 µM,37.6 µM,20.4 µM,5.11 µM,1.3 µM
CC(C)(C)[Si](C)(C)OCC1CCC(n2cnc3c(NC(=O)c4ccccc4)ncnc32)O1 (configuration not stated),45.1 µM,39.5 µM,37 µM,33,37.4 µM,60.2 µM,32 µM,39.9 µM,33.6 µM,53.9 µM,–,–,–,–,–,–,–,–,–,–
Cc1[nH]c(=O)[nH]c(=O)c1N(CCF)CCCl,502 µM and > 250 µM and 851 µM,461 µM and 755 µM,1410 µM,1660,635 µM and 2500 µM and 631 µM,632 µM and 1020 µM and 1140 µM,689 µM and 834 µM and 633 µM,990 µM and 1210 µM and 1850 µM,1370 µM and 1230 µM,1870 µM,140 µM,230 µM,–,–,255 µM and 512 µM,210 µM and 388 µM and 217 µM,118 µM and 264 µM and 171 µM,335 µM and 455 µM,–,–
COc1cc(/C=C(/C)[N+](=O)[O-])ccc1O,3.39 µM and 2.9 µM,7.6 µM and 3.18 µM,4.11 µM and 3.26 µM,> 28.4,5.23 µM,9.5 µM and 7.93 µM,7.15 µM and 6.05 µM,14.6 µM and 7.07 µM,6.09 µM,11.2 µM,1.44 µM and 1.37 µM,2.62 µM and 1.69 µM,2.01 µM and 1.59 µM,4.67 µM,2.05 µM and 2.09 µM,2.86 µM and 2.73 µM,2.52 µM and 2.22 µM,3.94 µM and 2.5 µM,2.63 µM,1.12 µM
COC(=O)/C=C/c1cc(O)c2c(c1)C(C(=O)OC)C(c1ccc(O)c(O)c1)O2 (configuration not stated),82.1 µM and > 100 µM,62.2 µM and > 75.9 µM,> 100 µM,> 100,54.7 µM and > 100 µM,> 54.9 µM and 12 µM,12.3 µM and 12.1 µM,61.9 µM and 23.7 µM,> 57.6 µM and 24.1 µM,> 54.9 µM and 6 µM,0.0337 µM,0.34 µM and 0.353 µM,0.372 µM and 0.053 µM,0.468 µM and 0.0614 µM,0.134 µM and 0.075 µM,0.526 µM and 0.0809 µM,1.46 µM and 0.363 µM,4.95 µM and 1.11 µM,3.89 µM and 1.75 µM,0.051 µM and 0.0369 µM
C=C1C(=O)O[C@H]2[C@H]1CC/C(COC(=O)C(=O)c1c[nH]c3ccccc13)=C\CC[C@@]1(C)O[C@@H]21,8.83 µM,25.9 µM,11.8 µM,> 100,16 µM,12.7 µM,20.7 µM,6.08 µM,2.68 µM,14.3 µM,2.16 µM,5.18 µM,3.12 µM,4.89 µM,3.92 µM,3.14 µM,4.03 µM,2.27 µM,1.21 µM,1.55 µM
Cc1ccc(C)c(NC(=O)C(=O)C(c2cnc3ccc([N+](=O)[O-])cc3n2)[N+](=O)[O-])c1 (configuration not stated),> 100 µM,38.2 µM,> 100 µM,> 100,> 100 µM,48.2 µM,> 100 µM,> 100 µM,> 100 µM,> 100 µM,–,–,–,–,–,–,–,–,–,–
CS(=O)(=O)c1ccc(Oc2cc(F)cc(C#N)c2)c2c1[C@H](O)[C@H](F)[C@@H]2F,> 100 µM,> 100 µM,> 100 µM,> 100,> 100 µM,> 100 µM,> 100 µM,> 100 µM,> 100 µM,> 100 µM,> 100 µM,> 100 µM,> 100 µM,> 100 µM,> 100 µM,> 100 µM,> 100 µM,> 100 µM,> 100 µM,> 100 µM
CNc1ccccc1C(=O)N/N=C/C=C/c1ccccc1,> 100 µM,> 48.5 µM,> 57.6 µM,> 100,> 100 µM,> 100 µM,> 41.9 µM,> 100 µM,12.9 µM,> 88.8 µM,0.49 µM,5.61 µM,3.47 µM,1.97 µM,7.93 µM,3.41 µM,0.503 µM,1.06 µM,0.373 µM,0.402 µM
CC1=C(C)C(=O)c2c(c(C(=O)c3ccccc3)c3nc4ccccc4n3c2C)C1=O,> 100 µM,> 100 µM,> 100 µM,> 100,> 100 µM,> 100 µM,> 100 µM,> 100 µM,> 100 µM,> 100 µM,70.1 µM,> 100 µM,63.5 µM,35.4 µM,46.5 µM,39.7 µM,63.3 µM,> 100 µM,> 100 µM,> 100 µM
O=[N+]([O-])c1ccc(N2CCN(Cc3ccccc3)CC2)c2c1no[n+]2[O-],2.44 µM,3.07 µM,2.98 µM,7.99,5.68 µM,5.25 µM,3.52 µM,3.19 µM,2.12 µM,0.973 µM,0.803 µM,1.37 µM,1.57 µM,2.32 µM,1.98 µM,1.59 µM,1.61 µM,1.5 µM,0.829 µM,0.0751 µM
CC(C)(C)[OH+][O-].[O-]c1ccc(Cl)cc1C=Nc1ccc(Cl)cc1[O-].[O]=[V],30 µM,–,54.2 µM,52.6,66.9 µM,> 100 µM,46.3 µM,> 100 µM,67.3 µM,> 100 µM,11.4 µM,–,16.5 µM,19.4 µM,20.4 µM,23 µM,18 µM,17.1 µM,21.9 µM,7.79 µM
